{"source": "ChEMBL document CHEMBL4184280", "about": "“Novel nicotinamide analog as inhibitor of nicotinamide N-methyltransferase” (Bioorg Med Chem Lett, 2018)", "key": {"[1]": {"molecular_target": "T1, Nicotinamide N-methyltransferase (Homo sapiens, UniProt P40261)", "T1 sequence (P40261 whole entry)": "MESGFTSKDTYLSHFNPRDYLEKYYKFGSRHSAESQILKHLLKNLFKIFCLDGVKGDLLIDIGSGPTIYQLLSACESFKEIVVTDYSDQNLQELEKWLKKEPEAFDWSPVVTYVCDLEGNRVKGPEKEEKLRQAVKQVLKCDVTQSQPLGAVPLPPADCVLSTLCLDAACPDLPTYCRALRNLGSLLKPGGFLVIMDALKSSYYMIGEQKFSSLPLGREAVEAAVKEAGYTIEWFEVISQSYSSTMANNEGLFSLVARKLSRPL"}, "[2]": {"assay": "Oral bioavailability in C57Bl6/N mouse at 10 mg/kg", "type": "ADME, organism-based", "details": "in vivo"}, "[3]": {"assay": "Cmax in C57Bl6/N mouse at 1 mg/kg, iv", "type": "ADME, organism-based", "parameters": "dose 1 mg/kg, route intravenous", "details": "in vivo"}, "[4]": {"assay": "Metabolic stability in human liver microsomes assessed as parent compound remaining after 30 mins", "type": "ADME, microsome", "details": "read-out: Stability"}, "[5]": {"assay": "AUC in C57Bl6/N mouse at 1 mg/kg, iv", "type": "ADME, organism-based", "details": "in vivo"}, "[6]": {"assay": "AUC in C57Bl6/N mouse at 10 mg/kg, po", "type": "ADME, organism-based", "details": "in vivo"}, "[7]": {"molecular_target": "T2, Nicotinamide N-methyltransferase (Mus musculus, UniProt O55239)", "T2 sequence (O55239 whole entry)": "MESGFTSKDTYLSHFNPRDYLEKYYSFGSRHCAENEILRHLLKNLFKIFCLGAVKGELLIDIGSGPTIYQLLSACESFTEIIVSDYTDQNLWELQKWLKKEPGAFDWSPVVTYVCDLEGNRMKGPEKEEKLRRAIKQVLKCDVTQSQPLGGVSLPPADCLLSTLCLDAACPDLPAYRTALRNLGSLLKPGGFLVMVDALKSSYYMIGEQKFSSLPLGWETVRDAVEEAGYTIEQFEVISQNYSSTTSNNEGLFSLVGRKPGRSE", "assay": "Inhibition of mouse NNMT at 30 uM preincubated for 30 mins followed by nicotinamide substrate and SAM addition measured after 60 mins by fluorescence assay"}, "[8]": {"assay": "Metabolic stability in mouse liver microsomes assessed as parent compound remaining after 30 mins", "type": "ADME, microsome", "details": "read-out: Stability"}, "[9]": {"assay": "Metabolic stability in rat liver microsomes assessed as parent compound remaining after 30 mins", "type": "ADME, microsome", "details": "read-out: Stability"}, "[10]": {"assay": "Cmax in C57Bl6/N mouse at 10 mg/kg, po", "type": "ADME, organism-based", "parameters": "dose 10 mg/kg, route oral", "details": "in vivo"}, "[11]": {"molecular_target": "Cytochrome P450 2C9 (Homo sapiens, UniProt P11712)", "sequence (P11712 whole entry)": "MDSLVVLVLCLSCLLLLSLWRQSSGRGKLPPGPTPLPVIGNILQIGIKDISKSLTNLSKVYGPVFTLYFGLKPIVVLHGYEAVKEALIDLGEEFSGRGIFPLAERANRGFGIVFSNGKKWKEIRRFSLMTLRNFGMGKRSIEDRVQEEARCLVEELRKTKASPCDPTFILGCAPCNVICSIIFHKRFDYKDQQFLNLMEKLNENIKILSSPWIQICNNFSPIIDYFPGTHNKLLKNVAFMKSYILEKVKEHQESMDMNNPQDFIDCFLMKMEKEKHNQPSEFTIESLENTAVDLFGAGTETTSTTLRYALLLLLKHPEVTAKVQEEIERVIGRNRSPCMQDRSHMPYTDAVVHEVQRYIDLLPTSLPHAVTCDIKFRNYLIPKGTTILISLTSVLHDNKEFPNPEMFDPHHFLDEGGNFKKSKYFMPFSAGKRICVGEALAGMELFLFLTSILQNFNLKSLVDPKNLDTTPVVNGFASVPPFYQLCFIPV", "assay": "Inhibition of CYP2C9 (unknown origin)", "type": "ADME"}, "[12]": {"assay": "Volume of distribution in C57Bl6/N mouse at 10 mg/kg, po or 1 mg/kg, iv", "type": "ADME, organism-based", "details": "in vivo"}, "[13]": {"system": "Mus musculus", "assay": "In vivo inhibition of NNMT in C57Bl6/N mouse assessed as reduction in plasma MNA level at 50 mg/kg, po measured after 2 hrs by LC-MS/MS analysis", "type": "functional"}, "[14]": {"assay": "Clearance in C57Bl6/N mouse at 10 mg/kg, po or 1 mg/kg, iv", "type": "ADME, organism-based", "details": "in vivo"}, "[15]": {"molecular_target": "Cytochrome P450 3A4 (Homo sapiens, UniProt P08684)", "sequence (P08684 whole entry)": "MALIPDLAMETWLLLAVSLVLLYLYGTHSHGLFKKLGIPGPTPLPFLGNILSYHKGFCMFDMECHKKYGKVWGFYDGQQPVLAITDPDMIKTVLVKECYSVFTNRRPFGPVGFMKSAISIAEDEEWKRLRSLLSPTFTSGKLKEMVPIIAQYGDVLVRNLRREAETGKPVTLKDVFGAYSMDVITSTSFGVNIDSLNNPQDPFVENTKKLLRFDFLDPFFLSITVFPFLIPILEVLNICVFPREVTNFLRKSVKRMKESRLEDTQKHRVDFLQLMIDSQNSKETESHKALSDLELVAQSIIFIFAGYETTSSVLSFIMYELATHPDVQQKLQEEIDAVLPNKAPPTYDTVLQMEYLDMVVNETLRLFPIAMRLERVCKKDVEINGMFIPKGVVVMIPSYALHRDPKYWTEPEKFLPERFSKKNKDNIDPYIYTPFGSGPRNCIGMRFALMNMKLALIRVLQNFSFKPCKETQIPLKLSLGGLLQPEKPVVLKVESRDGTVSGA", "assay": "Inhibition of CYP3A4 (unknown origin)", "type": "ADME"}, "[16]": {"assay": "Half life in C57Bl6/N mouse at 1 mg/kg, iv", "type": "ADME, organism-based", "details": "in vivo"}, "[17]": {"assay": "Solubility of the compound", "type": "physicochemical"}, "[18]": {"molecular_target": "Cytochrome P450 2C19 (Homo sapiens, UniProt P33261)", "sequence (P33261 whole entry)": "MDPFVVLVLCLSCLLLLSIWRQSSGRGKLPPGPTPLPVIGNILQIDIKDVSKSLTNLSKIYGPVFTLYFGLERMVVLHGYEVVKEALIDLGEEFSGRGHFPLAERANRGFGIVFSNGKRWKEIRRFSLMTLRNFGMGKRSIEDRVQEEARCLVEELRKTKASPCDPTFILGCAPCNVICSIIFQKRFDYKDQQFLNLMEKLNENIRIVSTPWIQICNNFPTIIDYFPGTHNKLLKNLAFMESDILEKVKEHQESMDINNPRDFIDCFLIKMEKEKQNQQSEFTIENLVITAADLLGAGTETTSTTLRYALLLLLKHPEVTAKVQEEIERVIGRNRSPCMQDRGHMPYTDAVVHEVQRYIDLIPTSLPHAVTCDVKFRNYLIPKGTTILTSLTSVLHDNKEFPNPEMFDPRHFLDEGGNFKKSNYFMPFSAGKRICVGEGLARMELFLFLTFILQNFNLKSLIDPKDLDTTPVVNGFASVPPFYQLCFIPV", "assay": "Inhibition of CYP2C19 (unknown origin)", "type": "ADME"}, "[19]": {"molecular_target": "Cytochrome P450 2D6 (Homo sapiens, UniProt P10635)", "sequence (P10635 whole entry)": "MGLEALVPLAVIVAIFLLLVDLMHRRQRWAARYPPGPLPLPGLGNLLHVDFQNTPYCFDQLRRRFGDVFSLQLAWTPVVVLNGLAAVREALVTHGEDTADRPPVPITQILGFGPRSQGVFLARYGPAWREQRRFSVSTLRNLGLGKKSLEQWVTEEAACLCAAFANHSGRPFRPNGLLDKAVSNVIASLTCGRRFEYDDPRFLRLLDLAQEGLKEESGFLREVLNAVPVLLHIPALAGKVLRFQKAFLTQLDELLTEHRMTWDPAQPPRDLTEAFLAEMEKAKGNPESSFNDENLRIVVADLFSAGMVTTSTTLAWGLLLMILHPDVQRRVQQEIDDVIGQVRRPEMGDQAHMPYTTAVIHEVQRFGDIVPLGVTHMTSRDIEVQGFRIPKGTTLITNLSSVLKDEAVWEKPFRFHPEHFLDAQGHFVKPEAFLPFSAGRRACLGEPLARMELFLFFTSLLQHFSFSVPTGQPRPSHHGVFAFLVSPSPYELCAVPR", "assay": "Inhibition of CYP2D6 (unknown origin)", "type": "ADME"}, "[20]": {"molecular_target": "T2, Nicotinamide N-methyltransferase", "assay": "Inhibition of NNMT in mouse 3T3L1 cells assessed as reduction in MNA production after 24 hrs by LC-MS/MS analysis", "type": "cell-based"}, "[21]": {"assay": "Half life in C57Bl6/N mouse at 10 mg/kg, po", "type": "ADME, organism-based", "details": "in vivo"}}, "data": [{"smiles": "CN(C)c1ccc(C(N)=O)cn1", "values": [{"measurement": "IC50", "setting": "[1]", "value": "> 30", "unit": "µM"}]}, {"smiles": "Cn1cc(C(N)=O)ccc1=O", "values": [{"measurement": "IC50", "setting": "[1]", "value": "> 30", "unit": "µM"}]}, {"smiles": "COc1ccc(NC(C)=O)cn1", "values": [{"measurement": "IC50", "setting": "[1]", "value": "> 30", "unit": "µM"}]}, {"smiles": "Cc1ccc(C(N)=O)cn1", "values": [{"measurement": "IC50", "setting": "[1]", "value": "> 10", "unit": "µM"}]}, {"smiles": "COc1ccc(C(=N)N)cn1", "values": [{"measurement": "IC50", "setting": "[1]", "value": "> 30", "unit": "µM"}]}, {"smiles": "COc1ccc(-c2nnn[nH]2)cn1", "values": [{"measurement": "IC50", "setting": "[1]", "value": "> 30", "unit": "µM"}]}, {"smiles": "COc1ccc(C(N)=O)cn1", "values": [{"measurement": "IC50", "setting": "[1]", "value": "2.36 to 2.52", "unit": "µM"}]}, {"smiles": "[2H]C([2H])([2H])Oc1ccc(C(N)=O)cn1", "values": [{"measurement": "IC50", "setting": "[1]", "value": "0.922 to 1.61", "unit": "µM"}]}, {"smiles": "CSc1ccc(C(N)=O)cn1", "values": [{"measurement": "IC50", "setting": "[1]", "value": "> 30", "unit": "µM"}]}, {"smiles": "COc1cnc(C(N)=O)cn1", "values": [{"measurement": "IC50", "setting": "[1]", "value": "> 30", "unit": "µM"}]}, {"smiles": "CCNC(=O)c1ccc(OC)nc1", "values": [{"measurement": "IC50", "setting": "[1]", "value": "> 30", "unit": "µM"}]}, {"smiles": "CCOc1cc(C)ncc1C(N)=O", "values": [{"measurement": "IC50", "setting": "[1]", "value": "> 30", "unit": "µM"}]}, {"smiles": "NC(=O)c1ccc(C(F)(F)F)nc1", "values": [{"measurement": "IC50", "setting": "[1]", "value": "> 30", "unit": "µM"}]}, {"smiles": "NC(=O)c1ccc(OC(F)F)nc1", "values": [{"measurement": "IC50", "setting": "[1]", "value": "> 30", "unit": "µM"}]}, {"smiles": "CCOc1nc(C)ccc1C(N)=O", "values": [{"measurement": "IC50", "setting": "[1]", "value": "> 30", "unit": "µM"}]}, {"smiles": "CCc1ccc(C(N)=O)cn1", "values": [{"measurement": "IC50", "setting": "[1]", "value": "> 30", "unit": "µM"}]}, {"smiles": "COc1ccc(C(N)=O)cc1F", "values": [{"measurement": "IC50", "setting": "[1]", "value": "> 30", "unit": "µM"}]}, {"smiles": "CNc1ccc(C(N)=O)cn1", "values": [{"measurement": "bioavailability", "setting": "[2]", "value": 19, "unit": "%"}, {"measurement": "Cmax", "setting": "[3]", "value": 587, "unit": "ng/mL"}, {"measurement": "remaining at 0.5 h", "setting": "[4]", "value": 85, "unit": "%"}, {"measurement": "AUC", "setting": "[5]", "value": 511, "unit": "ng·h/mL"}, {"measurement": "AUC", "setting": "[6]", "value": 1090, "unit": "ng·h/mL"}, {"measurement": "IC50", "setting": "[7]", "value": 4.5, "unit": "µM"}, {"measurement": "remaining at 0.5 h", "setting": "[8]", "value": 69, "unit": "%"}, {"measurement": "remaining at 0.5 h", "setting": "[9]", "value": 97, "unit": "%"}, {"measurement": "Cmax", "setting": "[10]", "value": 1430, "unit": "ng/mL"}, {"measurement": "IC50", "setting": "[11]", "value": "> 20", "unit": "µM"}, {"measurement": "Vd", "setting": "[12]", "value": 1.85, "unit": "L/kg"}, {"measurement": "inhibition in vivo at 50 mg/kg", "setting": "[13]", "value": 80, "unit": "%"}, {"measurement": "clearance", "setting": "[14]", "value": 27.9, "unit": "mL/min/kg"}, {"measurement": "IC50", "setting": "[15]", "value": "> 20", "unit": "µM"}, {"measurement": "half-life", "setting": "[16]", "value": 0.8, "unit": "h"}, {"measurement": "solubility", "setting": "[17]", "value": 200, "unit": "µM"}, {"measurement": "IC50", "setting": "[18]", "value": "> 20", "unit": "µM"}, {"measurement": "IC50", "setting": "[19]", "value": "> 20", "unit": "µM"}, {"measurement": "IC50", "setting": "[20]", "value": 2.1, "unit": "µM"}, {"measurement": "half-life", "setting": "[21]", "value": 1.2, "unit": "h"}]}, {"smiles": "COc1ccc(C(N)=O)cc1", "values": [{"measurement": "IC50", "setting": "[1]", "value": "> 30", "unit": "µM"}]}]}
